Measurements: patent US4005213A, “2,5-Substituted-1,3,4-thiadiazoles as fungicides” (Schering Aktiengesellschaft, priority 1968, dated 1977)

Assays:
Pythium ultimum [1] = assay: Pea test in soil inoculated with Pythium ultimum (Example 2); type: in vivo; parameters: key to Root evaluation (1-4): 4 = white roots, no necroses … 1 = severe necroses, roots rotted; details: for Number of sound peas after 3 wks.: 25 grains seeded; for Root evaluation (1-4): 3 weeks
Description: Steamed compost soil was inoculated with mycelium of Pythium ultimum. […] The following table lists the number of germinated sound peas, the weight of the fresh plant, and a root evaluation after a cultivation period of 3 weeks at 22°-25° C.
4 = white roots, without fungus necroses
3 = white roots, slight fungus necroses
2 = brown roots, more intense fungus necroses
1 = severe fungus necroses, roots rotted

Rhizoctonia solani [2] = assay: Pea test in soil inoculated with Rhizoctonia solani (Example 3); type: in vivo; details: for Number of sound peas after 3 wks.: 25 grains seeded; for Root evaluation (1-4): 3 weeks
Text: Steamed compost soil was inoculated with mycelium of Rhizoctonia solani. After homogeneous mixture of the products with the infested soil, the products were present in the form of 20% powder preparations, the seeding of 25 grains of marrow peas of the variety Miracle of Kelvedon per concentration was effected without waiting period in clay dishes holding 1 liter of soil. The table lists the number of germinated sound peas, the weight of the fresh plant, and a root evaluation after a cultivation period of 3 weeks at 22°-25° C.

[3] = system: Fusarium oxysporum f. callistephi; assay: Soil inoculated with Fusarium oxysporum f. callistephi, Callistephus chinensis host plants (Example 5); type: in vivo; details: four seedlings per concentration
Text: Steamed compost soil was inoculated with a spore suspension of Fusarium oxysporum f. callistephi. After homogeneous mixture of the products with the infested soil, the products were present as 20% powder preparations, and after a waiting period of 8 days, there were set out per concentration four seedlings of Callistephus chinensis, master aster "Sun Ray" as host plants.

Aspergillus niger = assay: Agar test, Aspergillus niger (Example 7); type: cell-based; details: 10 ppm in malt extract agar, 5 days at 22° C.; control 100
Description: (§1) The fungicidal action of the agents according to the invention was tested in artificial nutrient media against plant-pathogenic fungi in Petri dishes (agar test). The procedure was to sterilize the medium consisting of 2% malt extract and 1.5% agar-agar powder. Before the solidification of the medium, the active substances were added to it, mixing thoroughly, so that the medium received 10 parts of active substance per million (ppm). After the solidification of the medium, the latter was inoculated with a platinum dropper which contained 100 spores each of the fungi to be tested, and after 5 days at 22° C., an evaluation was made by measuring the diameter of the colonies in mm.

Pythium ultimum [4] = assay: Limit concentration of soil-fungicidal effectiveness, Pythium ultimum infested soil, peas (Example 1); type: in vivo; details: Globisporangium ultimum, 20 to 23 days, 22°-25° C., germination at least 90% vs steamed soil
Description: Limit concentrations of the soil-fungicidal effectiveness at homogeneous mixture of the products with the infested soil. Basic condition in the evaluation are a sound root formation without fungus necroses and germination of the seed of at least 90% compared with the result obtained in steamed soil. Per concentration there were seeded 25 grains of peas of the variety "Miracle of Kelvedon" (marrow pea) without a waiting period. the cultivation time in the tests was 20 to 23 days at a temperature of 22°-25° C. Four commercial products were included in the test series.
Pythium ultimum: Steamed compost soil was inoculated with mycelium of Pythium ultimum

Rhizoctonia solani [5] = assay: Fungicidal effect in the vapor phase, Rhizoctonia solani (Example 11); type: cell-based; details: even at 1 mg active ingredient per liter; 5 days, 22° C.; 10% powder
Description: (§2) Nutrient medium inoculated with nycelium of Pythium ultimum or Rhizoctonia solani in open Petri dishes was placed in glass vessels 12 cm tall. First the quantity of product as a 10% powder preparation had been placed on the bottom of the glasses. After a reaction time of 3 days (Pythium) and 5 days (Rhizoctonia) at a temperature of 22° C. in the covered glass vessel, the mycelium growth was evaluated.

Stemphylium ilicis = assay: Agar test, Stemphylium ilicis (Example 7); type: cell-based; details: 10 ppm in malt extract agar, 5 days at 22° C.; control 100
Description: as §1

Pythium ultimum [6] = assay: Fungicidal effect in the vapor phase, Pythium ultimum (Example 11); type: cell-based; details: even at 1 mg active ingredient per liter; 3 days, 22° C.; 10% powder
Description: as §2

Damping-off Fungi = assay: Cotton seed disinfection in normal compost soil (Example 6); type: in vivo; details: 100 mg active ingr. per kg of seed, 15 days, 22°-25° C.
Description: Cotton seeds disinfected with 10% formulations were seeded in normal compost soil (Damping-off Fungi), 25 grains per concentration. After a cultivation time of 15 days at 22°-25° C., the number of germinated sound cotton seedlings and their weight as fresh plants were determined.

Meloidogyne incognita = assay: Nematocidal action against root gall nematodes, cucumber (Example 8); type: in vivo; details: reduction of attack, 30 days
Description: The products as 20% powder preparations were homogeneously admixed with a compost soil heavily infested by root gall nematodes. Without a waiting period, 20 cucumber seeds per concentration were seeded. After a cultivation time of 30 days at a temperature of 23°-25° C., the nematocidal action was evaluated by counting the root galls formed in the waterbath. The following table states the reduction of attack in percent. In the control, an average of 90 root galls per seedling had formed.

[7] = 200 mg active ingr. per liter of soil
[8] = 10 mg active ingr. per liter of soil
[9] = 20 mg active ingr. per liter of soil
[10] = 30 mg active ingr. per liter of soil
[11] = 50 mg active ingr. per liter of soil
[12] = 100 mg active ingr. per liter of soil
[13] = 40 mg active substance per liter of soil
[14] = 60 mg active substance per liter of soil

COc1cc(Cl)c(OC)cc1Cl [1,4-dichloro-2,5-dimethoxybenzene, reference compound]
Number of sound peas after 3 wks. (Pythium ultimum [1]; [7]): 2 | Number of sound peas after 3 wks. (Rhizoctonia solani [2]; [8]): 0 | Number of sound peas after 3 wks. (Rhizoctonia solani [2]; [9]): 0 | Number of sound peas after 3 wks. (Rhizoctonia solani [2]; [10]): 21 | Number of sound peas after 3 wks. (Rhizoctonia solani [2]; 40 mg active ingr. per liter of soil): 22 | No. of attacked plants after 3 weeks [3, 11]: 4 | No. of attacked plants after 3 weeks [3, 12]: 4 | No. of attacked plants after 3 weeks [3, 7]: 4

CS(=O)(=O)c1nnc(C(F)(F)F)s1 [Compound 1, 2-trifluoromethyl-5-methylsulfonyl-1,3,4-thiadiazole]
diameter of the colonies, Aspergillus niger (Aspergillus niger): 0 mm | Root evaluation (1-4) (Pythium ultimum [1]; [8]): 4 | Root evaluation (1-4) (Pythium ultimum [1]; [9]): 4 | Number of sound peas after 3 wks. (Pythium ultimum [1]; [9]): 22 | Root evaluation (1-4) (Pythium ultimum [1]; [10]): 4 | minimal effective concentration (Pythium ultimum [4]): 10 µg/mL | mycelium growth, Rhizoctonia solani, vapor phase (Rhizoctonia solani [5]): no mycelium growth | diameter of the colonies, Stemphylium ilicis (Stemphylium ilicis): 0 mm | mycelium growth, Pythium ultimum, vapor phase (Pythium ultimum [6]): no mycelium growth

C[S+]([O-])c1nnc(C(Cl)Cl)s1 (centres unmarked) [Compound 3, 2-dichloromethyl-5-methylsulfinyl-1,3,4-thiadiazole]
diameter of the colonies, Aspergillus niger (Aspergillus niger): 50 mm | Root evaluation (1-4) (Pythium ultimum [1]; [8]): 4 | Root evaluation (1-4) (Pythium ultimum [1]; [9]): 4 | Root evaluation (1-4) (Pythium ultimum [1]; [10]): 4 | minimal effective concentration (Pythium ultimum [4]): 10 µg/mL | Sound plants in % (Damping-off Fungi): 100% | Number of sound peas after 3 wks. (Rhizoctonia solani [2]; [8]): 0 | Root evaluation (1-4) (Rhizoctonia solani [2]; [9]): 1 | Root evaluation (1-4) (Rhizoctonia solani [2]; [10]): 4 | diameter of the colonies, Stemphylium ilicis (Stemphylium ilicis): 0 mm | Nematocidal action in % (Meloidogyne incognita) (Meloidogyne incognita; [13]): 100% | Nematocidal action in % (Meloidogyne incognita) (Meloidogyne incognita; [14]): 100%

CC[S+]([O-])c1nnc(C(Cl)Cl)s1 (centres unmarked) [Compound 4, 2-dichloromethyl-5-ethylsulfinyl 1,3,4-thiadiazole]
minimal effective concentration (Pythium ultimum [4]): 100 µg/mL | Nematocidal action in % (Meloidogyne incognita) (Meloidogyne incognita; [13]): 96% | Nematocidal action in % (Meloidogyne incognita) (Meloidogyne incognita; [14]): 99%

CCC[S+]([O-])c1nnc(C(Cl)Cl)s1 (centres unmarked) [Compound 5, 2-dichloromethyl-5-propylsulfinyl-1,3,4-thiadiazole]
minimal effective concentration (Pythium ultimum [4]): 100 µg/mL | Nematocidal action in % (Meloidogyne incognita) (Meloidogyne incognita; [13]): 90% | Nematocidal action in % (Meloidogyne incognita) (Meloidogyne incognita; [14]): 98%

C[S+]([O-])c1nnc(C(Cl)(Cl)Cl)s1 (centres unmarked) [Compound 8, 2-trichloromethyl-5-methylsulfinyl-1,3,4-thiadiazole]
diameter of the colonies, Aspergillus niger (Aspergillus niger): 0 mm | Root evaluation (1-4) (Pythium ultimum [1]; [8]): 1 | Root evaluation (1-4) (Pythium ultimum [1]; [9]): 4 | Root evaluation (1-4) (Pythium ultimum [1]; [10]): 4 | minimal effective concentration (Pythium ultimum [4]): 20 µg/mL | Root evaluation (1-4) (Rhizoctonia solani [2]; [8]): 4 | Root evaluation (1-4) (Rhizoctonia solani [2]; [9]): 4 | Root evaluation (1-4) (Rhizoctonia solani [2]; [10]): 4 | diameter of the colonies, Stemphylium ilicis (Stemphylium ilicis): 0 mm

CC[S+]([O-])c1nnc(C(Cl)(Cl)Cl)s1 (centres unmarked) [Compound 9, 2-trichloromethyl-5-ethylsulfinyl-1,3,4-thiadiazole]
diameter of the colonies, Aspergillus niger (Aspergillus niger): 0 mm | minimal effective concentration (Pythium ultimum [4]): 200 µg/mL | Root evaluation (1-4) (Rhizoctonia solani [2]; [8]): 4 | Root evaluation (1-4) (Rhizoctonia solani [2]; [9]): 4 | Root evaluation (1-4) (Rhizoctonia solani [2]; [10]): 4 | diameter of the colonies, Stemphylium ilicis (Stemphylium ilicis): 0 mm

CCS(=O)(=O)c1nnc(C(Cl)Cl)s1 [Compound 18, 2-dichloromethyl-5-ethylsulfonyl-1,3,4-thiadiazole]
diameter of the colonies, Aspergillus niger (Aspergillus niger): 0 mm | minimal effective concentration (Pythium ultimum [4]): > 200 µg/mL | diameter of the colonies, Stemphylium ilicis (Stemphylium ilicis): 0 mm | Nematocidal action in % (Meloidogyne incognita) (Meloidogyne incognita; [13]): 61% | Nematocidal action in % (Meloidogyne incognita) (Meloidogyne incognita; [14]): 90%

CCCS(=O)(=O)c1nnc(C(Cl)Cl)s1 [Compound 19, 2-dichloromethyl-5-propylsulfonyl-1,3,4-thiadiazole]
diameter of the colonies, Aspergillus niger (Aspergillus niger): 0 mm | minimal effective concentration (Pythium ultimum [4]): 100 µg/mL | diameter of the colonies, Stemphylium ilicis (Stemphylium ilicis): 0 mm | Nematocidal action in % (Meloidogyne incognita) (Meloidogyne incognita; [13]): 72% | Nematocidal action in % (Meloidogyne incognita) (Meloidogyne incognita; [14]): 82%

CCCS(=O)(=O)c1nnc(C(Cl)(Cl)Cl)s1 [Compound 23, 2-trichloromethyl-5-propylsulfonyl-1,3,4-thiadiazole]
diameter of the colonies, Aspergillus niger (Aspergillus niger): 0 mm | minimal effective concentration (Pythium ultimum [4]): 150 µg/mL | Root evaluation (1-4) (Rhizoctonia solani [2]; [8]): 1 | Root evaluation (1-4) (Rhizoctonia solani [2]; [9]): 3 | Root evaluation (1-4) (Rhizoctonia solani [2]; [10]): 4 | diameter of the colonies, Stemphylium ilicis (Stemphylium ilicis): 0 mm

CCCCCS(=O)(=O)c1nnc(C(Cl)(Cl)Cl)s1 [Compound 26, 2-trichloromethyl-5-amylsulfonyl-1,3,4-thiadiazole]
diameter of the colonies, Aspergillus niger (Aspergillus niger): 0 mm | minimal effective concentration (Pythium ultimum [4]): > 200 µg/mL | diameter of the colonies, Stemphylium ilicis (Stemphylium ilicis): 0 mm

CCCCCCS(=O)(=O)c1nnc(C(Cl)(Cl)Cl)s1 [Compound 27, 2-trichloromethyl-5-hexylsulfonyl-1,3,4-thiadiazole]
diameter of the colonies, Aspergillus niger (Aspergillus niger): 0 mm | minimal effective concentration (Pythium ultimum [4]): > 200 µg/mL | diameter of the colonies, Stemphylium ilicis (Stemphylium ilicis): 0 mm

CCCCCCCS(=O)(=O)c1nnc(C(Cl)(Cl)Cl)s1 [Compound 28, 2-trichloromethyl-5-heptysulfonyl-1,3,4-thiadiazole]
diameter of the colonies, Aspergillus niger (Aspergillus niger): 0 mm | minimal effective concentration (Pythium ultimum [4]): > 200 µg/mL | diameter of the colonies, Stemphylium ilicis (Stemphylium ilicis): 0 mm

CCCCCCCCS(=O)(=O)c1nnc(C(Cl)(Cl)Cl)s1 [Compound 29, 2-trichloromethyl-5-octylsulfonyl-1,3,4-thiadiazole]
diameter of the colonies, Aspergillus niger (Aspergillus niger): 19 mm | minimal effective concentration (Pythium ultimum [4]): > 200 µg/mL | diameter of the colonies, Stemphylium ilicis (Stemphylium ilicis): 0 mm

CS(=O)(=O)c1nnc(C(Br)Br)s1 [Compound 32, 2-dibromomethyl-5-methylsulfonyl-1,3,4-thiadiazole]
diameter of the colonies, Aspergillus niger (Aspergillus niger): 0 mm | minimal effective concentration (Pythium ultimum [4]): 20 µg/mL | diameter of the colonies, Stemphylium ilicis (Stemphylium ilicis): 0 mm

C[S+]([O-])c1nnc(C(F)(F)F)s1 (centres unmarked) [Compound 35, 2-trifluoromethyl-5-methylsulfinyl-1,3,4-thiadiazole]
minimal effective concentration (Pythium ultimum [4]): 10 µg/mL | mycelium growth, Rhizoctonia solani, vapor phase (Rhizoctonia solani [5]): no mycelium growth | mycelium growth, Pythium ultimum, vapor phase (Pythium ultimum [6]): no mycelium growth

CC[S+]([O-])c1nnc(C(F)(F)F)s1 (centres unmarked) [Compound 36, 2-trifluoromethyl-5-ethylsulfinyl-1,3,4-thiadiazole]
minimal effective concentration (Pythium ultimum [4]): 10 µg/mL | mycelium growth, Rhizoctonia solani, vapor phase (Rhizoctonia solani [5]): no mycelium growth | mycelium growth, Pythium ultimum, vapor phase (Pythium ultimum [6]): no mycelium growth

CCS(=O)(=O)c1nnc(C(F)(F)F)s1 [Compound 40, 2-trifluoromethyl-5-ethylsulfonyl-1,3,4-thiadiazole]
minimal effective concentration (Pythium ultimum [4]): 10 µg/mL | mycelium growth, Rhizoctonia solani, vapor phase (Rhizoctonia solani [5]): no mycelium growth | mycelium growth, Pythium ultimum, vapor phase (Pythium ultimum [6]): no mycelium growth

O=C1C2CC=CCC2C(=O)N1SC(Cl)(Cl)Cl (centres unmarked) [N-(trichloromethylthio)-cyclohex-4-ene-1,2-dicarboximide]
Root evaluation (1-4) (Pythium ultimum [1]; [7]): 1 | Number of sound peas after 3 wks. (Pythium ultimum [1]; [7]): 13 | No. of attacked plants after 3 weeks [3, 11]: 4 | No. of attacked plants after 3 weeks [3, 12]: 4 | No. of attacked plants after 3 weeks [3, 7]: 4
